{"source": "patent US8361993B2", "about": "“Hydroxy-bisphosphonic acid derivatives as vector targeting bone tissue” (Universite de Nantes, priority 2008, dated 2013)", "key": {"mice (Swiss strain)": {"tested_on": "mice (Swiss strain)", "test": "in vivo bone tropism test in young mice, 4 weeks of treatment", "settings": "0.35 μmol/kg sub-cutaneously twice a week; for specific bone volume BV/TV, left femur / specific bone volume BV/TV, average of left and right femur / specific bone volume BV/TV, right femur: 4 weeks; for specific bone volume BV/TV, left femur: control 56.58%; for specific bone volume BV/TV, average of left and right femur: control 62.89%; for specific bone volume BV/TV, right femur: control 69.20%"}, "murine fibroblast L929": {"tested_on": "murine fibroblast L929", "test": "cells", "format": "cell-based", "settings": "Mus musculus, L929, 72 h"}, "POS-1 mouse osteosarcoma [1]": {"tested_on": "POS-1 mouse osteosarcoma", "settings": "in vivo"}, "POS-1 mouse osteosarcoma [2]": {"tested_on": "POS-1 mouse osteosarcoma", "test": "cells", "format": "cell-based", "settings": "72 h"}, "different cell lines": {"tested_on": "different cell lines", "test": "in vitro cytotoxicity of the fluorescent molecule", "format": "cell-based"}, "mice": {"tested_on": "mice", "test": "administration of the fluorescent molecule in mice", "settings": "mouse, in vivo"}, "[3]": {"tested_on": "MG63 osteosarcoma cell line", "test": "viability/cytotoxicity test on osteosarcoma line MG63", "format": "cell-based", "settings": "MG-63; human osteosarcoma cell line", "procedure": "(§1) The biological activities (viability/cytotoxicity test) of the molecules (III) and (IV) were tested in vitro on cultures of human, murine and rat osteosarcoma lines in comparison with normal cells (healthy osteoblasts from mouse calvaria)."}, "[4]": {"tested_on": "OSRGA osteosarcoma cell line", "test": "viability/cytotoxicity test on osteosarcoma line OSRGA", "format": "cell-based", "settings": "rat osteosarcoma cell line", "procedure": "as §1"}, "[5]": {"tested_on": "POS1 osteosarcoma cell line", "test": "viability/cytotoxicity test on osteosarcoma line POS1", "format": "cell-based", "settings": "mouse osteosarcoma cell line", "procedure": "as §1"}, "[6]": {"tested_on": "Mouse osteosarcoma POS1 cells", "test": "in vivo osteolytic primitive bone tumor model, POS1 tumor fragments transplanted into para-osteal site", "settings": "treated versus untreated (control) mice; FIG. 3", "procedure": "Mouse osteosarcoma POS1 cells were injected in the pad of a 5-week old male mouse of the C3H/HeN strain. Fragments of the tumor which develops on this site are then transplanted into a para-osteal site in order to induce development of an osteolytic primitive bone tumor. The molecule (IV) was then injected as a cure of […] injections (IP) of 11.5 or 115 μmol/kg at 24 hr intervals from the 7th day (D7) after tumoral induction."}}, "note": "Where a name gives a salt, the structure may show the parent alone. Read-outs that look alike come from different tables or passages of the source."}
{"smiles": "O=P(O)(O)C(O)(Cn1ccnc1)P(=O)(O)O", "note": "[Disodium salt of zoledronic acid, zoledronic acid, reference compound]", "values": [{"measurement": "specific bone volume BV/TV, left femur", "setting": "mice (Swiss strain)", "result": 72.72, "unit": "%"}, {"measurement": "specific bone volume BV/TV, average of left and right femur", "setting": "mice (Swiss strain)", "result": 74.02, "unit": "%"}, {"measurement": "specific bone volume BV/TV, right femur", "setting": "mice (Swiss strain)", "result": 75.33, "unit": "%"}, {"measurement": "weight follow-up and general condition of the mice", "setting": "mice (Swiss strain); after 4 weeks", "result": "no incidence on the weight follow-up, nor on the general condition"}]}
{"smiles": "NP(=O)(OCc1cccc(OCCCBr)c1)N(CCCl)CCCl", "note": "(centres unmarked) [Molecule 2]", "values": [{"measurement": "IC50", "setting": "murine fibroblast L929; read-out: IC50 L929 (DMSO)", "result": "> 500", "unit": "µM"}, {"measurement": "IC50", "setting": "murine fibroblast L929; read-out: IC50 L929 (ethanol)", "result": 250, "unit": "µM"}, {"measurement": "survival rate", "setting": "POS-1 mouse osteosarcoma [1]", "result": "significant increase"}, {"measurement": "IC50", "setting": "POS-1 mouse osteosarcoma [2]; read-out: IC50 POS-1 (DMSO)", "result": 200, "unit": "µM"}, {"measurement": "IC50", "setting": "POS-1 mouse osteosarcoma [2]; read-out: IC50 POS-1 (ethanol)", "result": 300, "unit": "µM"}]}
{"smiles": "CN(CCCOc1cccc(COP(N)(=O)N(CCCl)CCCl)c1)CCC(=O)OC(C)(C)C", "note": "(centres unmarked) [Molecule 3]", "values": [{"measurement": "IC50", "setting": "murine fibroblast L929; read-out: IC50 L929 (DMSO)", "result": 500, "unit": "µM"}, {"measurement": "IC50", "setting": "murine fibroblast L929; read-out: IC50 L929 (ethanol)", "result": "> 500", "unit": "µM"}, {"measurement": "IC50", "setting": "POS-1 mouse osteosarcoma [2]; read-out: IC50 POS-1 (DMSO)", "result": 280, "unit": "µM"}, {"measurement": "IC50", "setting": "POS-1 mouse osteosarcoma [2]; read-out: IC50 POS-1 (ethanol)", "result": 500, "unit": "µM"}]}
{"smiles": "CN(CCCOc1ccccc1)CCC(O)(P(=O)(O)O)P(=O)(O)O", "note": "[Molecule 4]", "values": [{"measurement": "specific bone volume BV/TV, left femur", "setting": "mice (Swiss strain)", "result": 73.69, "unit": "%"}, {"measurement": "specific bone volume BV/TV, average of left and right femur", "setting": "mice (Swiss strain)", "result": 73.88, "unit": "%"}, {"measurement": "specific bone volume BV/TV, right femur", "setting": "mice (Swiss strain)", "result": 74.08, "unit": "%"}, {"measurement": "mineral density on radiographs", "setting": "mice (Swiss strain); after 4 weeks, versus control mice, FIG. 2", "result": "increase in the mineral density"}]}
{"smiles": "CN(CCCOc1cccc(CN(C)S(=O)(=O)c2cccc3c(N(C)C)cccc23)c1)CCC(O)(P(=O)(O)O)P(=O)(O)O", "note": "[Molecule (II), 3-((3-(3-((5-dimethylamino)-N-methylnaphthalene-1-sulfonamido)methyl)phenoxy)propyl(methyl)amino)-1-hydropropane-1,1-diyldiphosphonic acid]", "values": [{"measurement": "cytotoxic activity in vitro", "setting": "different cell lines", "result": "did not have any cytotoxic activity"}, {"measurement": "cytotoxic activity after administration in mice", "setting": "mice", "result": "did not either reveal any cytotoxic activity"}]}
{"smiles": "CN(CCCOc1cccc(COP(N)(=O)N(CCCl)CCCl)c1)CCC(O)(P(=O)(O)O)P(=O)(O)O", "note": "(centres unmarked) [Molecule (III), 3-((3-(3-((amino(bis(2-chloroethyl)amino)phosphoryloxy)methyl)phenoxy)propyl)(methyl)amino)-1-hydroxypropane-1,1-diyl-diphosphonic acid]", "values": [{"measurement": "IC50", "setting": "[3]", "result": "> 200", "unit": "µM"}, {"measurement": "IC50", "setting": "[4]", "result": "> 200", "unit": "µM"}, {"measurement": "IC50", "setting": "[5]", "result": "> 200", "unit": "µM"}]}
{"smiles": "CN(CCCOc1cccc(COCCOP(N)(=O)N(CCCl)CCCl)c1)CCC(O)(P(=O)(O)O)P(=O)(O)O", "note": "(centres unmarked) [Molecule (IV), {3-[(3-{3-[6-amino-9-chloro-7-(2-chloroethyl)-6-oxido-2,5-dioxa-7-aza-6-phosphanon-1-yl]phenoxy}propyl)(methyl)amino]-1-hydroxypropane-1,1-diyl}biphosphonic acid]", "values": [{"measurement": "IC50", "setting": "[3]", "result": "> 500", "unit": "µM"}, {"measurement": "IC50", "setting": "[4]", "result": "> 500", "unit": "µM"}, {"measurement": "bone mineral density in the epiphyseal area (radiographs)", "setting": "[6]", "result": "increase in the bone mineral density"}, {"measurement": "IC50", "setting": "[5]", "result": "> 500", "unit": "µM"}]}
